Like-named read-outs stand apart in the source and are kept apart here.
What was measured:
[1] = test system: oxytocin receptor (OTR) in human term myometrial cells; assay: Oxytocin-induced intracellular calcium transients in human term myometrial cells (Fura-2, single cells); type: cell-based; conditions: 0.001 μg/ml (2.2 nM) troglitazone, 1 min before 10 nM oxytocin; FIG. 3B
Experimental: FIGS. 3A-H. Change in intracellular cytoplasmic calcium levels in human term myometrial cells in culture. Each line represents the change in calcium for a single cell. Cells were either pretreated with troglitazone for one minute and then treated with oxytocin, bombesin (BBS), or bradykinin. These three agents cause an increase in intracellular calcium and cause uterine contraction under the correct circumstance. Cells were grown in 10% FBS, DMEM, penicillin/streptomycin resulting in elevated OTR levels. Cells were then put into KRH buffer containing Fura-2. The cells take up Fura-2 allowing for detection in changes of cytoplasmic levels of calcium. Cells were then treated as described for each figure. […] There is no effect of troglitazone at this concentration upon oxytocin-stimulated calcium transients.
Cell Culture Conditions: The proper protocols were followed in obtaining human term myometrium tissue from mother's delivering via C-section. Human term pregnant myometrial cells were isolated by collagenase dispersion and were grown in media consisting of Delbecco's modified eagles media (DMEM) supplemented with 10% fetal bovine serum (FBS), and 2% penicillin/streptomycin in a humidified tissue culture incubator at 37° C. under an atmosphere of 5% CO2 and 95% air. […]

oxytocin receptors (OTR) = molecular target: T1, oxytocin receptors (OTR) (Homo sapiens, UniProt P30559); assay: Competition with 125I-OTA for OTR binding, whole-cell assay in human myometrial cells; conditions: for affinity for OTR binding: FIG. 1
T1 construct: endogenous in cells; host or cells: primary human term pregnant myometrial cells (from C-section tissue, collagenase dispersion)
T1 sequence (P30559 1-389): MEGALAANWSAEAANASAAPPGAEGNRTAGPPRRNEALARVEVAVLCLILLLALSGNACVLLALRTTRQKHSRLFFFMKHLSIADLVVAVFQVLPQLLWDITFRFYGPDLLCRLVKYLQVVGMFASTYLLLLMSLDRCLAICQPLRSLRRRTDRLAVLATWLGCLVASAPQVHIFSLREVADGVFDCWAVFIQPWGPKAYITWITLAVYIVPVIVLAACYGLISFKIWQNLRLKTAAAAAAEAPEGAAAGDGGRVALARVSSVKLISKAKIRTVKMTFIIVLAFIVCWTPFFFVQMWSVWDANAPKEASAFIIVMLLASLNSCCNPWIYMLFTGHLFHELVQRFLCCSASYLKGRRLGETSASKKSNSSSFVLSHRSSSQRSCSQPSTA
Experimental: FIG. 1. […] Percent inhibition of ^125I-OTA binding in human myometrial cells.
Determination of OTR ligand binding: OTA was monoiodinated as previously described (Hinko and Soloff, 1992). The specific activity of the iodinated peptide was 2000 Ci/mmol at the time of preparation. Whole cell assays for specific OTR binding activity were performed as described previously, using increasing concentrations of [^125I]OTA (Copland et al., 1999). The concentration of cellular DNA was determined in parallel, using the Hoechst dye H 33258 and a Hoefer DyNA Quant fluorometer according to the manufacturer's instructions.
The specific binding was determined by subtracting […]. Specific binding was expressed as a percent of total binding. All points were done in triplicate.

[2] = test system: oxytocin induced uterine contractions; conditions: Thornton et al. 1999; cited from earlier work
[3] = FIG. 1, read-out: IC50, 125I-OTA binding to OTR

Row | Compound | IC50 (oxytocin receptors (OTR); [3]) | affinity for OTR binding (oxytocin receptors (OTR)) | other results
1 | Cc1c(C)c2c(c(C)c1O)CCC(C)(COc1ccc(CC3SC(=O)NC3=O)cc1)O2 (racemic) [troglitazone, ±5-[[4-[(3,4-dihydro-6-hydroxy-2,5,7,8-tetramethyl-2H-1-benzopyran-2-yl)methoxy]phenyl]methyl]-2,4-thiazolidinedione] |  |  | effect on oxytocin-stimulated calcium transients [1]: no effect; IC50 (oxytocin receptors (OTR); FIG. 1, read-out: 50% inhibitory concentration (IC50), 125I-OTA binding to OTR): 0.0157 µM
2 | CC(=O)[C@H]1CC[C@H]2[C@@H]3CC[C@H]4CC(=O)CC[C@]4(C)[C@H]3CC[C@]12C [5β-dihydroprogesterone] | ~100 µM |  | concentration needed to inhibit oxytocin induced uterine contractions [2]: 100 µM
3 | C[C@]12CC[C@@H]3c4ccc(O)cc4CC[C@H]3[C@@H]1CC[C@@H]2O [17β-estradiol] |  | no affinity | 
4 | CN(CCOc1ccc(CC2SC(=O)NC2=O)cc1)c1ccccn1 (centres unmarked) [BRL49653, rosiglitazone] | ~10.6 µM |  | 

Further lines, with some results ahead:

Row | IC50 (oxytocin receptors (OTR); [3]) | affinity for OTR binding (oxytocin receptors (OTR)) | Compound | other results
5 |  | no affinity | Cc1c(C)c2c(c(C)c1OC(=O)CCC(=O)O)CC[C@@](C)(CCC[C@H](C)CCC[C@H](C)CCCC(C)C)O2 [Vitamin E succinate] | 
6 | ~10.6 µM |  | CCc1ccc(CCOc2ccc(CC3SC(=O)NC3=O)cc2)nc1 (centres unmarked) [pioglitazone] | 

Source: patent US7528133B1, “Use of thiazolidinediones derivatives for preventing uterine contractions in premature labour or lactation” (The Board of Regents of The University of Texas System, priority 1998, dated 2009)
